# Measurements taken from ChEMBL document CHEMBL1201861, “Genomics of Drug Sensitity in Cancer screening data, Wellcome Trust Sanger Institute”.
# Counter-ions that a name gives are not always drawn.
# Assays:
# Assay in all cases: cells
# Type in all cases: functional, cell-based, Homo sapiens
# PF-382 = tested on: PF-382
# Description: SANGER: Inhibition of human PF-382 cell growth in a cell viability assay.
# TE-15 = tested on: TE-15;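 note: cell viability readout of growth inhibition in TE-15 cells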
# Description: SANGER: Inhibition of human TE-15 cell growth in a cell viability assay.
# NCI-H2141 = tested on: NCI-H2141;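 note: growth inhibition of human NCI-H2141 cells, read out with a cell viability assay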
# Description: SANGER: Inhibition of human NCI-H2141 cell growth in a cell viability assay.
# Daudi = tested on: Daudi;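 note: growth inhibition of Daudi cells, read out by a viability assay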
# Description: SANGER: Inhibition of human Daudi cell growth in a cell viability assay.
# EVSA-T = tested on: EVSA-T;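 note: growth inhibition of EVSA-T cells, read out with a cell viability assay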
# Description: SANGER: Inhibition of human EVSA-T cell growth in a cell viability assay.
# OPM-2 = tested on: OPM-2;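 note: growth of OPM-2 cells measured with a viability assay, IC50 for suppression of proliferation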
# Description: SANGER: Inhibition of human OPM-2 cell growth in a cell viability assay.
# GDM-1 = tested on: GDM-1;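 note: cell viability readout used to measure growth inhibition of human GDM-1 cells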
# Description: SANGER: Inhibition of human GDM-1 cell growth in a cell viability assay.
# Kasumi 1 = conditions: Homo sapiens, Kasumi 1;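 note: growth inhibition of human Kasumi-1 cells, read out by a cell viability assay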
# Description: SANGER: Inhibition of human KASUMI-1 cell growth in a cell viability assay.
# NCI-H1436 = tested on: NCI-H1436;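 note: growth suppression of human NCI-H1436 cells, determined with a cell viability readout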
# Description: SANGER: Inhibition of human NCI-H1436 cell growth in a cell viability assay.
# HGC-27 = tested on: HGC-27;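 note: growth inhibition of human HGC-27 cells, read out in a cell viability assay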
# Description: SANGER: Inhibition of human HGC-27 cell growth in a cell viability assay.
# NCI-H1703 = tested on: NCI-H1703;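 note: growth inhibition of NCI-H1703 cells, read out via a cell viability assay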
# Description: SANGER: Inhibition of human NCI-H1703 cell growth in a cell viability assay.
# NCI-H727 = tested on: NCI-H727;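 note: growth inhibition of human NCI-H727 cells, read out with a cell viability assay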
# Description: SANGER: Inhibition of human NCI-H727 cell growth in a cell viability assay.
# ChaGo-K-1 = tested on: ChaGo-K-1;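 note: growth inhibition of ChaGo-K-1 cells, read out with a cell viability assay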
# Description: SANGER: Inhibition of human ChaGo-K-1 cell growth in a cell viability assay.
# AN3-CA = tested on: AN3-CA;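 note: growth inhibition of human AN3-CA cells measured by a cell viability assay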
# Description: SANGER: Inhibition of human AN3-CA cell growth in a cell viability assay.
# 5637 = tested on: 5637
# Description: SANGER: Inhibition of human 5637 cell growth in a cell viability assay.
# JEG-3 = tested on: JEG-3;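 note: growth inhibition of human JEG-3 cells, read out with a cell viability assay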
# Description: SANGER: Inhibition of human JEG-3 cell growth in a cell viability assay.
# NCI-H2347 = tested on: NCI-H2347;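 note: growth inhibition of the cell line, read out with a cell viability assay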
# Description: SANGER: Inhibition of human NCI-H2347 cell growth in a cell viability assay.
# UMUC3 = tested on: UMUC3;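 note: growth inhibition of human UM-UC-3 cells, read out with a cell viability assay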
# Description: SANGER: Inhibition of human UM-UC-3 cell growth in a cell viability assay.
# SW756 = tested on: SW756;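 note: growth inhibition of human SW756 cells, read out with a cell viability assay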
# Description: SANGER: Inhibition of human SW756 cell growth in a cell viability assay.
# UACC-893 = tested on: UACC-893
# Description: SANGER: Inhibition of human UACC-893 cell growth in a cell viability assay.
# PANC-03-27 = tested on: PANC-03-27
# Description: SANGER: Inhibition of human PANC-03-27 cell growth in a cell viability assay.
# Hs-578T = tested on: Hs-578T
# Description: SANGER: Inhibition of human Hs-578-T cell growth in a cell viability assay.
# NCI-H1651 = tested on: NCI-H1651;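 note: Read-out is a cell viability assay, with IC50 expressing inhibition of NCI-H1651 cell growth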
# Description: SANGER: Inhibition of human NCI-H1651 cell growth in a cell viability assay.
# Ca9-22 = tested on: Ca9-22;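 note: growth inhibition of Ca9-22 cells, read out with a cell viability assay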
# Description: SANGER: Inhibition of human Ca9-22 cell growth in a cell viability assay.
# SCC-25 = tested on: SCC-25;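 note: growth inhibition of SCC-25 cells, measured with a cell viability assay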
# Description: SANGER: Inhibition of human SCC-25 cell growth in a cell viability assay.
# HCC1806 = tested on: HCC1806;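 note: growth inhibition of the cancer cell line, determined with a cell viability assay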
# Description: SANGER: Inhibition of human HCC1806 cell growth in a cell viability assay.
# EHEB = tested on: EHEB;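 note: growth inhibition of human EHEB cells, read out with a cell viability assay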
# Description: SANGER: Inhibition of human EHEB cell growth in a cell viability assay.
# BOKU = tested on: BOKU;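 note: growth inhibition of the human BOKU cell line, read out by a cell viability assay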
# Description: SANGER: Inhibition of human BOKU cell growth in a cell viability assay.
# CAKI-1 = tested on: CAKI-1;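 note: growth inhibition of CAKI-1 cells, measured by a cell viability assay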
# Description: SANGER: Inhibition of human CAKI-1 cell growth in a cell viability assay.
# T-24 = tested on: T-24;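 note: growth inhibition of T-24 cells, read out with a cell viability assay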
# Description: SANGER: Inhibition of human T-24 cell growth in a cell viability assay.
# Detroit 562 = tested on: Detroit 562;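 note: growth inhibition of human Detroit 562 cells, read out by a cell viability assay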
# Description: SANGER: Inhibition of human Detroit562 cell growth in a cell viability assay.
# NCI-H1437 = tested on: NCI-H1437;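 note: growth inhibition of human NCI-H1437 cells, read out by a cell viability assay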
# Description: SANGER: Inhibition of human NCI-H1437 cell growth in a cell viability assay.
# LK-2 = tested on: LK-2;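 note: growth inhibition of LK-2 cells, read out with a viability assay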
# Description: SANGER: Inhibition of human LK-2 cell growth in a cell viability assay.
# COLO-679 = tested on: COLO-679
# Description: SANGER: Inhibition of human COLO-679 cell growth in a cell viability assay.
# KYSE-450 = tested on: KYSE-450;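 note: cell growth inhibition measured by a viability assay in human KYSE-450 cells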
# Description: SANGER: Inhibition of human KYSE-450 cell growth in a cell viability assay.
# HSC-2 = tested on: HSC-2;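 note: growth inhibition of human HSC-2 cells, read out by a cell viability assay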
# Description: SANGER: Inhibition of human HSC-2 cell growth in a cell viability assay.
# RO82-W-1 = tested on: RO82-W-1;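 note: growth inhibition of human RO82-W-1 cells, measured with a cell viability assay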
# Description: SANGER: Inhibition of human RO82-W-1 cell growth in a cell viability assay.
# MCF7 = tested on: MCF7;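 note: growth inhibition of human MCF7 cells, read out with a cell viability assay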
# Description: SANGER: Inhibition of human MCF7 cell growth in a cell viability assay.
# 8505C = tested on: 8505C
# Description: SANGER: Inhibition of human 8505C cell growth in a cell viability assay.
# DMS-273 = tested on: DMS-273
# Description: SANGER: Inhibition of human DMS-273 cell growth in a cell viability assay.
# NCI-H661 = tested on: NCI-H661;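 note: cell viability assay read-out, IC50 being the concentration that inhibits growth of the cells by half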
# Description: SANGER: Inhibition of human NCI-H661 cell growth in a cell viability assay.
# NCI-H596 = tested on: NCI-H596;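 note: growth inhibition of NCI-H596 cells, read out with a cell viability assay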
# Description: SANGER: Inhibition of human NCI-H596 cell growth in a cell viability assay.
# PFSK-1 = tested on: PFSK-1;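 note: cell viability assay measuring how strongly compounds suppress growth of human PFSK-1 cells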
# Description: SANGER: Inhibition of human PFSK-1 cell growth in a cell viability assay.
# SW626 = tested on: SW626;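 note: growth inhibition of SW626 cells, measured with a cell viability assay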
# Description: SANGER: Inhibition of human SW626 cell growth in a cell viability assay.
# KYSE-70 cell line = tested on: KYSE-70 cell line;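 note: cell viability assay read-out, with IC50 expressing suppression of KYSE-70 cell growth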
# Description: SANGER: Inhibition of human KYSE-70 cell growth in a cell viability assay.
# HuP-T3 = tested on: HuP-T3;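 note: HuP-T3 cell growth inhibition, read out with a cell viability assay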
# Description: SANGER: Inhibition of human HuP-T3 cell growth in a cell viability assay.
compound,measurement,setting,value
COc1cc2ncn(-c3cc(OCc4ccccc4S(C)(=O)=O)c(C#N)s3)c2cc1OC [GSK-319347A],IC50,"PF-382; Homo sapiens, PF-382",> 5 µM
same,IC50,"TE-15; Homo sapiens, TE-15",> 5 µM
same,IC50,"NCI-H2141; Homo sapiens, NCI-H2141",> 5 µM
same,IC50,"Daudi; Homo sapiens, Daudi",> 5 µM
same,IC50,"EVSA-T; Homo sapiens, EVSA-T",> 5 µM
same,IC50,"OPM-2; Homo sapiens, OPM-2",> 5 µM
same,IC50,"GDM-1; Homo sapiens, GDM-1",> 5 µM
same,IC50,Kasumi 1,> 5 µM
same,IC50,"NCI-H1436; Homo sapiens, NCI-H1436",> 5 µM
O=C(O)c1ccc(-c2c[nH]c3ncc(-c4ccccc4)cc23)cc1C1CCCC1 [GSK-650394],IC50,"HGC-27; Homo sapiens, HGC-27",1.31 µM
same,IC50,"NCI-H1703; Homo sapiens, NCI-H1703",> 16 µM
same,IC50,"NCI-H727; Homo sapiens, NCI-H727",> 16 µM
same,IC50,"PF-382; Homo sapiens, PF-382",> 16 µM
same,IC50,"ChaGo-K-1; Homo sapiens, ChaGo-K-1",> 16 µM
same,IC50,"AN3-CA; Homo sapiens, AN3-CA",7.66 µM
same,IC50,5637; Homo sapiens,3.21 µM
same,IC50,"JEG-3; Homo sapiens, JEG-3",> 16 µM
same,IC50,"NCI-H2347; Homo sapiens, NCI-H2347",> 16 µM
same,IC50,"TE-15; Homo sapiens, TE-15",2.59 µM
same,IC50,"UMUC3; Homo sapiens, UMUC3",9.58 µM
same,IC50,"SW756; Homo sapiens, SW756",> 16 µM
same,IC50,"NCI-H2141; Homo sapiens, NCI-H2141",> 16 µM
same,IC50,"UACC-893; Homo sapiens, UACC-893",> 16 µM
same,IC50,"PANC-03-27; Homo sapiens, PANC-03-27",> 16 µM
same,IC50,"Hs-578T; Homo sapiens, Hs-578T",> 16 µM
same,IC50,"NCI-H1651; Homo sapiens, NCI-H1651",> 16 µM
same,IC50,"Ca9-22; Homo sapiens, Ca9-22",> 16 µM
same,IC50,"Daudi; Homo sapiens, Daudi",> 16 µM
same,IC50,"SCC-25; Homo sapiens, SCC-25",> 16 µM
same,IC50,"HCC1806; Homo sapiens, HCC1806",> 16 µM
same,IC50,"EHEB; Homo sapiens, EHEB",> 16 µM
same,IC50,"BOKU; Homo sapiens, BOKU",> 16 µM
same,IC50,"CAKI-1; Homo sapiens, CAKI-1",> 16 µM
same,IC50,"EVSA-T; Homo sapiens, EVSA-T",> 16 µM
same,IC50,"T-24; Homo sapiens, T-24",> 16 µM
same,IC50,"Detroit 562; Homo sapiens, Detroit 562",12.8 µM
same,IC50,"NCI-H1437; Homo sapiens, NCI-H1437",6.13 µM
same,IC50,"OPM-2; Homo sapiens, OPM-2",> 16 µM
same,IC50,"GDM-1; Homo sapiens, GDM-1",0.879 µM
same,IC50,"LK-2; Homo sapiens, LK-2",> 16 µM
same,IC50,"COLO-679; Homo sapiens, COLO-679",5.3 µM
same,IC50,"KYSE-450; Homo sapiens, KYSE-450",5.6 µM
same,IC50,"HSC-2; Homo sapiens, HSC-2",> 16 µM
same,IC50,"RO82-W-1; Homo sapiens, RO82-W-1",> 16 µM
same,IC50,"MCF7; Homo sapiens, MCF7",1.82 µM
same,IC50,"8505C; Homo sapiens, 8505C",7.78 µM
same,IC50,"DMS-273; Homo sapiens, DMS-273",> 16 µM
same,IC50,"NCI-H661; Homo sapiens, NCI-H661",> 16 µM
same,IC50,"NCI-H596; Homo sapiens, NCI-H596",> 16 µM
same,IC50,"PFSK-1; Homo sapiens, PFSK-1",> 16 µM
same,IC50,"SW626; Homo sapiens, SW626",> 16 µM
same,IC50,"KYSE-70 cell line; Homo sapiens, KYSE-70",> 16 µM
same,IC50,"NCI-H1436; Homo sapiens, NCI-H1436",> 16 µM
same,IC50,"HuP-T3; Homo sapiens, HuP-T3",> 16 µM
COC1=CC(c2cc3ccccc3[nH]2)=N/C1=C\c1[nH]c(C)cc1C [OBATOCLAX MESYLATE],IC50,"HGC-27; Homo sapiens, HGC-27",< 0.0625 µM
same,IC50,"NCI-H1703; Homo sapiens, NCI-H1703",0.594 µM
same,IC50,"NCI-H727; Homo sapiens, NCI-H727",0.0805 µM
same,IC50,"PF-382; Homo sapiens, PF-382",0.0494 µM
same,IC50,"ChaGo-K-1; Homo sapiens, ChaGo-K-1",0.612 µM
same,IC50,"AN3-CA; Homo sapiens, AN3-CA",0.156 µM
same,IC50,5637; Homo sapiens,0.0837 µM
same,IC50,"JEG-3; Homo sapiens, JEG-3",1.5 µM
same,IC50,"NCI-H2347; Homo sapiens, NCI-H2347",0.888 µM
same,IC50,"TE-15; Homo sapiens, TE-15",0.203 µM
same,IC50,"UMUC3; Homo sapiens, UMUC3",0.291 µM
same,IC50,"SW756; Homo sapiens, SW756",0.0382 µM
same,IC50,"NCI-H2141; Homo sapiens, NCI-H2141",1.19 µM
same,IC50,"UACC-893; Homo sapiens, UACC-893",2.86 µM
same,IC50,"PANC-03-27; Homo sapiens, PANC-03-27",0.0967 µM
same,IC50,"Hs-578T; Homo sapiens, Hs-578T",0.183 µM
same,IC50,"NCI-H1651; Homo sapiens, NCI-H1651",0.497 µM
same,IC50,"Ca9-22; Homo sapiens, Ca9-22",0.111 µM
same,IC50,"Daudi; Homo sapiens, Daudi",0.0708 µM
same,IC50,"SCC-25; Homo sapiens, SCC-25",0.0449 µM
same,IC50,"HCC1806; Homo sapiens, HCC1806",0.124 µM
same,IC50,"EHEB; Homo sapiens, EHEB",0.823 µM
same,IC50,"BOKU; Homo sapiens, BOKU",1.28 µM
same,IC50,"CAKI-1; Homo sapiens, CAKI-1",1.72 µM
same,IC50,"EVSA-T; Homo sapiens, EVSA-T",0.817 µM
same,IC50,"T-24; Homo sapiens, T-24",9.94 µM
same,IC50,"Detroit 562; Homo sapiens, Detroit 562",0.489 µM
same,IC50,"NCI-H1437; Homo sapiens, NCI-H1437",0.408 µM
same,IC50,"OPM-2; Homo sapiens, OPM-2",0.509 µM
same,IC50,"GDM-1; Homo sapiens, GDM-1",0.685 µM
same,IC50,"LK-2; Homo sapiens, LK-2",0.0506 µM
same,IC50,"COLO-679; Homo sapiens, COLO-679",< 0.0625 µM
same,IC50,"KYSE-450; Homo sapiens, KYSE-450",< 0.0625 µM
same,IC50,"HSC-2; Homo sapiens, HSC-2",0.0247 µM
same,IC50,"RO82-W-1; Homo sapiens, RO82-W-1",2.41 µM
same,IC50,"MCF7; Homo sapiens, MCF7",< 0.0625 µM
same,IC50,"8505C; Homo sapiens, 8505C",0.0304 µM
same,IC50,"DMS-273; Homo sapiens, DMS-273",0.0285 µM
same,IC50,"NCI-H661; Homo sapiens, NCI-H661",1.3 µM
same,IC50,"NCI-H596; Homo sapiens, NCI-H596",0.236 µM
same,IC50,"PFSK-1; Homo sapiens, PFSK-1",1.21 µM
same,IC50,"SW626; Homo sapiens, SW626",0.072 µM
same,IC50,"KYSE-70 cell line; Homo sapiens, KYSE-70",0.0695 µM
same,IC50,"NCI-H1436; Homo sapiens, NCI-H1436",1.26 µM
same,IC50,"HuP-T3; Homo sapiens, HuP-T3",0.528 µM
CC[C@H](CO)Nc1nc(NCc2ccccc2)c2ncn(C(C)C)c2n1 [SELICICLIB],IC50,"PF-382; Homo sapiens, PF-382",> 16 µM
same,IC50,"TE-15; Homo sapiens, TE-15",> 16 µM
same,IC50,"NCI-H2141; Homo sapiens, NCI-H2141",> 16 µM
same,IC50,"Daudi; Homo sapiens, Daudi",> 16 µM
same,IC50,"EHEB; Homo sapiens, EHEB",> 16 µM
same,IC50,"EVSA-T; Homo sapiens, EVSA-T",> 16 µM
same,IC50,"OPM-2; Homo sapiens, OPM-2",> 16 µM
same,IC50,"GDM-1; Homo sapiens, GDM-1",> 16 µM
same,IC50,Kasumi 1,> 16 µM
same,IC50,"NCI-H1436; Homo sapiens, NCI-H1436",> 16 µM
BLEOMYCIN,IC50,HGC-27; hgc-27,2.84 µM
same,IC50,NCI-H1703; nci-h1703,0.0161 µM
same,IC50,NCI-H727; nci-h727,10.3 µM
same,IC50,PF-382; pf-382,0.426 µM
same,IC50,ChaGo-K-1; chago-k-1,16.4 µM
same,IC50,AN3-CA; an3-ca,2.55 µM
same,IC50,5637,0.029 µM
same,IC50,JEG-3; jeg-3,8.55 µM
same,IC50,NCI-H2347; nci-h2347,5.12 µM
same,IC50,TE-15; te-15,3.22 µM
same,IC50,UMUC3; umuc3,0.956 µM
same,IC50,SW756; sw756,11.4 µM
same,IC50,NCI-H2141; nci-h2141,36.1 µM
same,IC50,UACC-893; uacc-893,130 µM
same,IC50,PANC-03-27; panc-03-27,0.316 µM
same,IC50,Hs-578T; hs-578-t,344 µM
same,IC50,NCI-H1651; nci-h1651,0.505 µM
same,IC50,Ca9-22; ca9-22,0.746 µM
same,IC50,Daudi; daudi,1.67 µM
same,IC50,SCC-25; scc-25,0.415 µM
same,IC50,HCC1806; hcc1806,0.00854 µM
same,IC50,EHEB; eheb,1.61 µM
same,IC50,BOKU; boku,0.137 µM
same,IC50,CAKI-1; caki-1,0.62 µM
same,IC50,EVSA-T; evsa-t,861 µM
same,IC50,T-24; t-24,0.72 µM
same,IC50,Detroit 562; detroit 562,11.9 µM
same,IC50,NCI-H1437; nci-h1437,0.743 µM
same,IC50,OPM-2; opm-2,104 µM
same,IC50,GDM-1; gdm-1,0.228 µM
same,IC50,LK-2; lk-2,1.69 µM
same,IC50,COLO-679; colo-679,2.66 µM
same,IC50,KYSE-450; kyse-450,1.93 µM
same,IC50,HSC-2; hsc-2,2.47 µM
same,IC50,RO82-W-1; ro82-w-1,339 µM
same,IC50,MCF7; mcf7,1.17 µM
same,IC50,8505C; 8505c,1.04 µM
same,IC50,DMS-273; dms-273,2.98 µM
same,IC50,NCI-H661; nci-h661,2.79 µM
same,IC50,NCI-H596; nci-h596,13.6 µM
same,IC50,PFSK-1; pfsk-1,33.4 µM
same,IC50,SW626; sw626,1.41 µM
same,IC50,KYSE-70 cell line; kyse-70,1.38 µM
same,IC50,NCI-H1436; nci-h1436,2770 µM
same,IC50,HuP-T3; hup-t3,4.79 µM
